Consider six compounds from paper PMC2858921 (Toxicology and applied pharmacology, 2008).

Series [1] relates to FMO3. The conditions noted are these: ref Furnes and Schlenk, 2003, 2004; cited from earlier work.
Series [2] is described as follows: Fenthion, fenoxon and fenthion sulfoxide metabolism in liver microsomes. To be noted: for Vmax, Fenoxon formation / Vmax, MMTP (NADPH-dependent) formation / Vmax, MMTP (NADPH-independent) formation / Vmax, R-fenthion sulfoxide formation / Vmax, S-fenthion sulfoxide formation / Vmax, R-fenoxon sulfoxide formation / Vmax, S-fenoxon sulfoxide formation: liver microsomes incubated with fenthion; for R-fenoxon sulfoxide formation / S-fenoxon sulfoxide formation: liver, substrate 100 μM.

Series [3] is described as follows: Fenthion, fenoxon and fenthion sulfoxide metabolism in gill microsomes. The conditions noted are these: gills, substrate 100 μM, bdl: <0.3.
The conditions of series [4]: olfactory tissues.
Series [5] is described as follows: Cleavage in cytosolic incubations. The conditions noted are these: data not shown.
Series [6] has as its system AChE. To be noted: read-out: IC50 (AChE inhibition); ref Gadepalli et al., 2007; cited from earlier work.
The nature of series [7]: TEPP inhibition of MMTP formation from fenthion, olfactory tissue microsomes. The class given is biochemical, rainbow trout (Oncorhynchus mykiss). To be noted: freshwater-acclimated.
A short description of series [8]: TEPP inhibition of MMTP formation from fenthion, gill microsomes. The class given is biochemical, rainbow trout (Oncorhynchus mykiss). To be noted: Gills, freshwater-acclimated.
A short description of series [9]: TEPP inhibition of MMTP formation from fenthion, liver microsomes. The conditions noted are these: freshwater-acclimated. The class given is biochemical, rainbow trout (Oncorhynchus mykiss).
Series [10] addresses T1, recombinant human FMO1 (Homo sapiens, UniProt Q01740).
T1 sequence (Q01740 1-532): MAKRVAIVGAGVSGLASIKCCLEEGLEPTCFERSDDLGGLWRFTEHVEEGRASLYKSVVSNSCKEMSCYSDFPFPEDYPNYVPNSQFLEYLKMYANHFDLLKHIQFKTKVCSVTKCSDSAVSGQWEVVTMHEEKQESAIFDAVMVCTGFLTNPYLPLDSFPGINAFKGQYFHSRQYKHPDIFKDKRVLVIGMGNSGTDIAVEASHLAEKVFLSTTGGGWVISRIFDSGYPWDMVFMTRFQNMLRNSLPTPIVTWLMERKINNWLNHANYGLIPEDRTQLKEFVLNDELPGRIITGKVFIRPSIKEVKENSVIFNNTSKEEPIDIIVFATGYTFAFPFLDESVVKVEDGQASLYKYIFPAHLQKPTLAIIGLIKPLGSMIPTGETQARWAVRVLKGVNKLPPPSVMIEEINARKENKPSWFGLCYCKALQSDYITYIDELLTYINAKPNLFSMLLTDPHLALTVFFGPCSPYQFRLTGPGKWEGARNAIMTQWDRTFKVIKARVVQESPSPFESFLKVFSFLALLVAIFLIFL
The experiment in a line: Biotransformation by recombinant human FMO1. To be noted: fenthion sulfoxide as substrate.

For series [11], the system named is testosterone hydroxylase (CYP3A27-related). The experiment in a line: [14C]Testosterone hydroxylase activity in liver microsomes. To be noted: Ketoconazole 500 μM; below detection; data not shown.
The nature of series [12]: CYP. The conditions noted are these: for reduction of fenoxon formation: liver microsomes, ketoconazole 500 μM; for Fenoxon formation from fenthion / MMTP (NADPH-dependent) formation from fenthion / MMTP (NADPH-independent) formation from fenthion / R-Fenthion sulfoxide formation from fenthion / S-Fenthion sulfoxide formation from fenthion: liver, NADPH+ ketoconazole (500 μM)+ fenthion.

Setting [13] is: Table 1, freshwater-acclimated, bdl: <0.3.
[14] abbreviates: Table 1, freshwater-acclimated, substrate 100 μM, bdl: <0.3.

pIC50: −log10 of the molar value. “Also recorded” adds a separate entry of the source. Where two headings read alike, the source gives them in different places. Marks after values point to notes of the source that are not given here.

Take `COP(=S)(OC)Oc1ccc(SC)c(C)c1` [Fenthion, O,O-dimethyl-O-(4-methylmlercapto)-3-methylphenylthio-phosphate]: in series [1], the S-sulfoxide excess formed is 75%. For the same compound, in series [2] (Freshwater), the “Vmax, Fenoxon formation” value was 82.8±4.6 pmol/min/mg protein; the “Vmax, MMTP (NADPH-dependent) formation” value was 199.2±24.4 pmol/min/mg protein; the “Vmax, MMTP (NADPH-independent) formation” value stood at 53.7±4.8 pmol/min/mg protein; the “Vmax, R-fenthion sulfoxide formation” value is recorded as 78.6±5.2 pmol/min/mg protein. In addition, in [2] (Freshwater), the “Vmax, S-fenthion sulfoxide formation” value was found to be 173.4±9.6 pmol/min/mg protein. In [2] (Freshwater, bdl: <0.3), the “Vmax, R-fenoxon sulfoxide formation” value is reported as “bdl” and the “Vmax, S-fenoxon sulfoxide formation” value is “bdl”. In [2] (Hypersaline), the “Vmax, Fenoxon formation” value is listed as 130.0±6.1 pmol/min/mg protein; the “Vmax, MMTP (NADPH-dependent) formation” value came out at 35.1±1.9 pmol/min/mg protein; the “Vmax, MMTP (NADPH-independent) formation” value was 59.8±10.5 pmol/min/mg protein; the “Vmax, R-fenoxon sulfoxide formation” value was found to be 7.7±0.6 pmol/min/mg protein. In addition, in series [2] (Hypersaline), the “Vmax, R-fenthion sulfoxide formation” value was determined as 201.1±11.9 pmol/min/mg protein; the “Vmax, S-fenoxon sulfoxide formation” value was determined as 18.4±1.1 pmol/min/mg protein; the “Vmax, S-fenthion sulfoxide formation” value amounted to 355.7±9.4 pmol/min/mg protein. Besides, in [2] (setting [13]), the R-fenoxon sulfoxide formation entry is recorded as “bdl” and the S-fenoxon sulfoxide formation result is recorded as “bdl”. In series [2] (Table 3, Freshwater, bdl: <0.3), the R-fenoxon sulfoxide formation entry was “bdl” and the S-fenoxon sulfoxide formation result is “bdl”. Moreover, in series [2] (liver microsomes, HA fish), the “efficiency of R-sulfoxide formation relative to fenoxon” value was found to be 2 fold and the “efficiency of S-sulfoxide formation relative to R-sulfoxide” value is “approximately 3 fold”. In addition, in series [3] (Table 1, freshwater-acclimated), the R-fenoxon sulfoxide formation result is recorded as “bdl” and the S-fenoxon sulfoxide formation result is “bdl”. For the same compound, in series [3] (Table 4, Freshwater), the R-fenoxon sulfoxide formation entry is given as “bdl” and the S-fenoxon sulfoxide formation entry is reported as “bdl”. In series [3] (Table 4, Hypersaline), the R-fenoxon sulfoxide formation entry is recorded as “bdl” and the S-fenoxon sulfoxide formation result is “bdl”. In addition, in series [4] (setting [14]), the Fenoxon formation result was “bdl”, the R-fenoxon sulfoxide formation entry is on record as “bdl”, the R-fenthion sulfoxide formation result is on record as “bdl” and the S-fenoxon sulfoxide formation result is reported as “bdl”. Further, in series [4] (setting [14]), the S-fenthion sulfoxide formation entry is listed as “bdl”. Also, in series [4] (HA fish, data not shown), the sulfoxidation result is listed as “not detected”. Also, in series [5], the “NADPH-independent or dependent cleavage” value is recorded as “not observed”.
Take `COP(=S)(OC)Oc1ccc([S@@+](C)[O-])c(C)c1` [R-fenthion sulfoxide]: the R-fenoxon sulfoxide formation in series [2] (setting [13]) is given as 5.2±1.1 pmol/min/mg protein; in series [2] (Table 3, Freshwater, bdl: <0.3) it was 5.2±1.1 pmol/min/mg protein; in series [2] (Table 3, Hypersaline), 9.2±0.3 pmol/min/mg protein; in series [3] (Table 1, freshwater-acclimated), 2.9±0.1 pmol/min/mg protein; in series [3] (Table 4, Freshwater) it was 2.9±0.1 pmol/min/mg protein; in series [4] (setting [14]) it was “bdl”. In series [6], the pIC50 is less than 3.00.
As to `COP(=S)(OC)Oc1ccc([S+](C)[O-])c(C)c1` (centres unmarked) [S-fenthion sulfoxide], the S-fenoxon sulfoxide formation in [2] (setting [13]) is 6.1±0.2 pmol/min/mg protein; in series [2] (Table 3, Freshwater, bdl: <0.3), 6.1±0.2 pmol/min/mg protein; in [2] (Table 3, Hypersaline), 12.2±3.2 pmol/min/mg protein; in [3] (Table 1, freshwater-acclimated) it was 2.3±0.2 pmol/min/mg protein; in series [3] (Table 4, Freshwater), 2.1±0.1 pmol/min/mg protein; in series [4] (setting [14]) it was “bdl”.
Take `CCOP(=O)(OCC)OP(=O)(OCC)OCC` [TEPP, tetraethylpyrophosphate]: the “MMTP Formation from fenthion, NADPH-dependent” value was 254.3±18.1^a pmol/min/mg protein in series [7] (100 μM TEPP); 100.2±13.3^b pmol/min/mg protein in [7] (500 μM TEPP); “below detection; also recorded: bdl^c” in series [7] (1000 μM TEPP, bdl: <0.3); 105.3±8.9^a pmol/min/mg protein in series [8] (100 μM TEPP); 74.3±10.1^b pmol/min/mg protein in series [8] (500 μM TEPP); “below detection; also recorded: bdl^c” in series [8] (1000 μM TEPP, bdl: <0.3). In addition, the “MMTP Formation from fenthion, NADPH-dependent” value is 138.4±10.3^a pmol/min/mg protein in series [9] (100 μM TEPP); 65.4±11.1^b pmol/min/mg protein in series [9] (500 μM TEPP); “below detection; also recorded: bdl^c” in series [9] (1000 μM TEPP, bdl: <0.3). In addition, the “MMTP Formation from fenthion, NADPH-independent” value in [7] (500 μM TEPP, bdl: <0.3) is recorded as “bdl^b”; in [7] (1000 μM TEPP, bdl: <0.3) it was “bdl^b”; in series [8] (500 μM TEPP, bdl: <0.3), “bdl^b”; in series [8] (1000 μM TEPP, bdl: <0.3), “bdl^b”; in [9] (500 μM TEPP, bdl: <0.3), “bdl^b”; in [9] (1000 μM TEPP, bdl: <0.3) it was “bdl^b”.
Take `COP(=S)(OC)Oc1ccc([S+](C)[O-])c(C)c1` (centres unmarked) [fenthion sulfoxide]: the Fenoxon sulfoxides production result in series [10] is “not produced”.
Consider `CC(=O)N1CCN(c2ccc(OCC3COC(Cn4ccnc4)(c4ccc(Cl)cc4Cl)O3)cc2)CC1` (centres unmarked) [ketoconazole], for which the “testosterone hydroxylase activity with inhibitor” value in [11] is less than 0.2 pmol/min/mg protein. The “fenoxon sulfoxide formation with inhibitor” value in series [12] (liver microsomes from HA fish, co-incubation) is “below detection”. The “reduction of fenoxon formation” value in series [12] (FA fish) was determined as 67%. Besides, the “reduction of fenoxon formation” value in series [12] (HA fish) is given as 60%. In addition, in series [12] (Freshwater), the “Fenoxon formation from fenthion” value came out at 6.9±1.3 pmol/min/mg protein, the “MMTP (NADPH-dependent) formation from fenthion” value is 121.2±15.3 pmol/min/mg protein, the “MMTP (NADPH-independent) formation from fenthion” value stood at 5.3±2.1 pmol/min/mg protein and the “R-Fenthion sulfoxide formation from fenthion” value is reported as 16.7±1.7 pmol/min/mg protein. Further, in series [12] (Freshwater), the “S-Fenthion sulfoxide formation from fenthion” value is listed as 33.7±2.7 pmol/min/mg protein. Besides, in series [12] (Hypersaline), the “Fenoxon formation from fenthion” value was 16.8±2.4 pmol/min/mg protein, the “MMTP (NADPH-dependent) formation from fenthion” value is on record as 13.2±4.5 pmol/min/mg protein, the “MMTP (NADPH-independent) formation from fenthion” value came out at 4.5±1.1 pmol/min/mg protein and the “R-Fenthion sulfoxide formation from fenthion” value turned out to be 83.4±8.4 pmol/min/mg protein. In addition, the “S-Fenthion sulfoxide formation from fenthion” value in [12] (Hypersaline) is 168.4±13.2 pmol/min/mg protein.
